IC50 data for ten compounds are collected here from patent publication US20250145589A1, “PYRIDINE DERIVATIVE AND USE THEREOF” (SICHUAN HUIYU PHARMACEUTICAL CO., LTD., priority 2021, published 2025).

The subject of assay [1] is NCI-H358 cells (KRAS G12C mutant). The assay is described as follows: NCI-H358 cell proliferation inhibition (CellTiter-Glo). It is filed as cell-based. To be noted: H358 cells (G12C mutation), 3 days, Table 6, read-out: NCI-H358 (IC50). (In ATP-based viability assays light output follows the ATP content of the culture.)
Assay [2] has as its system NCI-H358-AMGR drug-resistant cell line. The assay is described as follows: NCI-H358-AMGR drug-resistant cell proliferation inhibitory activity test. It is filed as cell-based. The settings on record: NCI-H358-AMGR drug-resistant cells, 3 days incubation, CellTiter-Glo. The procedure, abridged:
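Luminescent CellTiter-Glo read-out after 3-day, 37° C compound exposure (8 points, 5-fold series) of AMG510-resistant NCI-H358 cells plated at 4×10^3 per well.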

pIC50: −log10 of the molar value. Read-outs that look alike come from different tables or passages of the source.

Regarding `COc1ncc(-c2ccc3ncnc(N4CC5CCC(C4)N5C(=O)/C=C/C(C)=O)c3c2)cc1NS(=O)(=O)c1c(F)cc(F)cc1F` [Example 155], the negative-log IC50 (pIC50) (commonly the IC50 on a negative log10 scale, so that one unit is a factor of ten) in assay [1] (Homo sapiens, NCI-H358, 72 h) was 7.39; in assay [2] (72 h), 6.79.

For the compound `COc1ncc(-c2ccc3ncnc(C4=CCN(C(=O)/C=C/C(C)=O)CC4)c3c2)cc1NS(=O)(=O)c1sc(C)nc1C` [Example 199, (E)-N-(2-methoxy-5-(4-(1-(4-oxopent-2-enoyl)-1,2,3,6-tetrahydropyridin-4-yl)quinazolin-6-yl)pyridin-3-yl)-2,4-dimethylthiazole-5-sulfonamide], the pIC50 in assay [1] (Homo sapiens, NCI-H358, 72 h) is 7.92; in assay [2] (72 h), 7.66.

For the compound `COc1ncc(-c2ccc3ncnc(N4CCN(C(=O)/C=C/C(C)=O)CC4)c3c2)cc1NS(=O)(=O)c1ccccc1F` [Example 91, (E)-2-fluoro-N-(2-methoxy-5-(4-(4-(4-oxopent-2-enoyl)piperazin-1-yl)quinazolin-6-yl)pyridin-3-yl)benzenesulfonamide], the negative-log IC50 (pIC50) in assay [1] (Homo sapiens, NCI-H358, 72 h) was 7.75; in assay [2] (72 h), 7.08.

Take `COc1ncc(-c2ccc3ncnc(N4C5CCC4CN(C(=O)/C=C/C(C)=O)C5)c3c2)cc1NS(=O)(=O)c1ccc(F)cc1F` [Example 144, 2,4-difluoro-N-(2-methoxy-5-(4-(3-((E)-4-oxopent-2-enoyl)-3,8-diazabicyclo[3.2.1]octan-8-yl)quinazolin-6-yl)pyridin-3-yl)benzenesulfonamide]: the pIC50 in assay [1] (Homo sapiens, NCI-H358, 72 h) is 7.32; in assay [2] (72 h), 7.37.

As to `COc1ncc(-c2ccc3ncnc(C4CCN(C(=O)/C=C/C(C)=O)CC4)c3c2)cc1NS(=O)(=O)c1c(F)cccc1Cl` [Example 206, (E)-2-chloro-6-fluoro-N-(2-methoxy-5-(4-(1-(4-oxopent-2-enoyl)piperidin-4-yl)quinazolin-6-yl)pyridin-3-yl) benzenesulfonamide], the pIC50 is 8.10 in assay [1] (Homo sapiens, NCI-H358, 72 h) and 8.02 in assay [2] (72 h).

In the case of `COc1ncc(-c2ccc3ncnc(N4CCN(C(=O)/C=C/C(C)=O)CC4)c3n2)cc1NS(=O)(=O)c1c(F)cccc1Cl` [Example 225, (E)-2-chloro-6-fluoro-N-(2-methoxy-5-(4-(4-(4-oxopent-2-enoyl)piperazin-1-yl)pyrido[3,2-d]pyrimidin-6-yl)pyridin-3-yl) benzene-sulfonamide], the pIC50 in assay [1] (Homo sapiens, NCI-H358, 72 h) was 7.87; in assay [2] (72 h) it was 7.46.

For the compound `COc1ncc(-c2ccc3ncnc(N4CCN(C(=O)/C=C/C(C)=O)C[C@@H]4C)c3c2)cc1NS(=O)(=O)c1sc(C)nc1C` [Example 173, (S,E)-N-(2-methoxy-5-(4-(2-methyl-4-(4-oxopent-2-enoyl)piperazin-1-yl)quinazolin-6-yl)pyridin-3-yl)-2,4-dimethyl-thiazole-5-sulfonamide], the negative-log IC50 (pIC50) in assay [1] (Homo sapiens, NCI-H358, 72 h) was 8.17; in assay [2] (72 h), 7.26.

Regarding `COc1ncc(-c2ccc3ncnc(N4CCN(C(=O)/C=C/C(C)=O)CC4)c3n2)cc1NS(=O)(=O)c1cc(F)ccc1F` [Example 217, (E)-2,5-difluoro-N-(2-methoxy-5-(4-(4-(4-oxopent-2-enoyl)piperazin-1-yl)pyrido[3,2-d]pyrimidin-6-yl)pyridin-3-yl) benzene-sulfonamide], the pIC50 in assay [1] (Homo sapiens, NCI-H358, 72 h) was 7.57; in assay [2] (72 h), 7.49.

For the compound `COc1ncc(-c2ccc3ncnc(N4CCN(C(=O)/C=C/C(C)=O)CC4)c3c2)cc1NS(=O)(=O)c1ccc(C)cc1F` [Example 111], the negative-log IC50 (pIC50) in assay [1] is 7.80; in assay [2] it was 6.93.

For `COc1ncc(-c2ccc3ncnc(C4=CCN(C(=O)/C=C/C(C)=O)CC4)c3c2)cc1NS(=O)(=O)c1ccc(F)cc1F` [Example 198, (E)-2,4-difluoro-N-(2-methoxy-5-(4-(1-(4-oxopent-2-enoyl)-1,2,3,6-tetrahydropyridin-4-yl)quinazolin-6-yl)pyridin-3-yl)benzenesulfonamide], the negative-log IC50 (pIC50) was 7.91 in assay [1] (Homo sapiens, NCI-H358, 72 h) and 7.66 in assay [2] (72 h).
